# In patent US7312305B2, “Tumor cytotoxicity induced by modulators of the CXCR4 receptor” (Morehouse School of Medicine, priority 2003, dated 2007):
# Experiments:
# [1] = system: epithelial tumor cell lines, HUVECs; assay: Apoptotic assay with gp 120 and Nef peptides; type: cell-based, human
# Excerpt: The nef protein was expressed and purified in the inventors' laboratory. overlapping 20 mer peptides encompassing the entire nef protein and overlapping 15 mer peptides encompassing the entire gp 120 protein were obtained from the NIH AIDS Research & Reference Reagent Program (McKesson HBC BioServices, MD) Other specific peptides designed from within gp 120 or nef were obtained from SigmaGenosys.
# Apoptosis, Terminal Deoxynucleotidyl Transferase dUTP Nick-end Labeling (TUNEL) Assay
# Apoptosis generates DNA free ends which can be labeled in situ using terminal deoxynucleotidyl-transferase (TdT), incorporating an exogenously added labeled nucleotide to the DNA strand. This label can then be visualized directly by fluorescence or indirectly using anti-FITC-peroxidase, and a calorimetric assay. Cells on coverslips were washed with PBS, and fixed for 30 minutes at RT with 4% paraformaldehyde, in PBS, pH 7.4. They were then washed with PBS, and permeabilized with 0.1% Triton X-100
# for 10 minutes at room temperature (RT). The slides were rinsed twice with PBS, and air dried for 2 minutes. The manufacturer's procedure for TUNEL staining the slides was followed (manufacturer's procedure for the In Situ Cell Death Detection Kit, AP; Boehringer Mannheim, Indianapolis, Ind.). Total cell counts were determined by counterstaining fixed cultures with 20 μg/ml of Hoechst 33258. All specimens were observed by epifluorescence on a computer-controlled microscope system based on a Zeiss Axioskop microscope (Carl Zeiss, Thornwood, N.Y.), and the images were obtained and examined using a charged coupled device (CCD) camera, MagnaFire, model S99806 (Olympus American, Melville, N.Y.). Images were examined using Image-Pro Plus 4.1 for Windows (Media Cybernetics, Silver Springs, Md.) software.
# Overlapping peptide sets obtained from the AIDS Reagent Bank were used in the apoptotic assay as disclosed above. Specific pg 120 and Nef peptides within those sets were identified as inducing apoptosis in epithelial tumor cell lines, as well as in HUVECs. Alternatively, these same peptides had no effect in primary mammary epithelium or in MDA-MB-468 tumor lines.
# [2] = system: MDA-MB-231, MCF7, DU4475; assay: Agarose gel electrophoresis/DNA fragmentation, CXCR4 expressing cell lines; type: cell-based, human; conditions: 10 mM (6.35 mg/ml) ceramide
# Procedure: Apoptosis Assay: Agarose Gel Electrophoresis/DNA Fragmentation
# Untreated or treated cells were collected, and DNA was harvested from normal or cancer cell cultures. Briefly, the cells were washed with PBS, pelleted at 1600 g for 20 minutes at 4° C., and resuspended in 50 mM Tris-HCl, pH 7.5, 20 mM EDTA buffer at about 10^ 7 cells/ml. The cells were then treated 2× with lysis buffer: 1.0% NP-40 (Sigma, St. Louis, Mo.) in the same Tris/EDTA buffer at RT for 2 minutes followed, by centrifugation at 1600 g for 5 minutes. After the last spin, SDS was added to the supernatant to 1% final concentration, RNase A (Sigma, St. Louis, Mo.) was added to 5 mg/mil final concentration, and the solution incubated at 56° C. for 2 hours. Subsequently, protease K (Promega, Madison, Wis.) was added to the solution to 2.5. µg/ml and incubated at 37° C. for 2.5 hr. Ammonium acetate was added to 4 M final concentration, 0.7 volumes of isopropanol was added, the solution was put at −20° C. overnight followed by centrifugation at 14,000 rpm for 30 minutes. The pellets were washed twice with 70% ethanol, dried and resuspended in 10 mM Tris-HCl, pH […]. DNA samples, 18 µg per condition, were prepared in neutral loading buffer to a final concentration of 0.02% bromophenol blue, 5% glycerol, 0.1% SDS, and 50 µg of ethidium bromide, loaded onto a neutral agarose gel (1.7%), and run at50V for 2.5 hours. […]
substance,measurement,setting,value
"ALAETCONAWA [Seq. I.D. No. 8, reference compound]",apoptotic/modulator properties of peptide or motif,[1],lost all apoptotic effects
Ceramide,"DNA laddering, positive control",[2],DNA laddering characteristic of apoptotic cells was observed
"GRAFYTT [Seq. I.D. No. 9, motif within the V3 loop of Gp 120, amino acids 315 to 321]",apoptotic/modulator properties of peptide or motif,[1],apoptosis-inducing motif
GRAFYTTKY [Seq. I.D. No. 11],apoptosis relative to that observed from the full gp 120 protein,[1]; equivalent molar ration (9 mer peptide is 2% of the full protein),about 60%
"NAACAWLEAQ [Seq. I.D. No. 7, 10 mer peptide spanning amino acids 50-60 of the Nef protein]",apoptosis relative to that observed for the full Nef protein,[1]; equivalent molar ration (10 mer peptide is 5% the amount of full protein),~100%
